Tests used:
Type in all cases: in vivo
[1] = tested on: fear conditioning stress rats; assay: Antianxiety effect (1): freezing time in fear conditioning stress rats; conditions: rat, 1 and 3 mg/kg oral, 2 h before 30 min stress load, Dunnett test
Text: Male Crj: CD (SD) rats (Charles River Laboratories Japan, Inc., at the time of evaluation: 8 weeks old) were used to load conditioned fear stress in accordance with Funatsu et al. method (European Journal of Pharmacology, Vol. 573, p. 190-195, 2007). The day before of fear conditioning, the rat was put in an electric shock device which was placed in a soundproof box to acclimate to the evaluation environment. The day of fear conditioning, the rat was put in the electric shock device. The conditioning, 5 seconds electric current load (2.0 mA) and light irradiation (3 pieces of 40 W fluorescent bulbs) followed by 3 seconds warning sound (60 to 70 db), was carried out a total 15 times at 1 minute intervals. The rat of the non-stressed group was given a warning sound and light irradiation without performing the electric current load during fear conditioning. The day after the fear conditioning, the vehicle (0.5 w/v % methylcellulose 400 cP solution) or the compound of the present invention (0.3, 1 or 3 mg/kg) was orally administered to the rat. Two hours after the administration, the rat was put in the electric shock device. […] The behavior of the rat was photographed with a video camera during the 30 minutes of stress load and freezing time was measured.

brain TSPO = target: T1, brain TSPO (Homo sapiens, UniProt P30536); assay: Brain occupancy using PET in humans (1), [11C] PBR28, Emax model
T1 construct: from tissue; host or cells: living human brain (PET, healthy adults)
T1 sequence (P30536 whole entry): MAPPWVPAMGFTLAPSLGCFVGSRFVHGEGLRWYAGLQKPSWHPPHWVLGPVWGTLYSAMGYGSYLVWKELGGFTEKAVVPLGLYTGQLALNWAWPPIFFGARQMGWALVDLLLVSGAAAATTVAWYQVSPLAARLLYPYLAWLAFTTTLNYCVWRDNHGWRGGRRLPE
Procedure: Male and female healthy adults were used. The compound of the present invention (6 to 200 mg) was once orally administered. Before and after 24 hours of the administration, a PET measurement using [^11C] PBR28 was performed in the following manner.
Measurement equipment: PET; ECAT HR+(Siemens) Measurement methods: 90 minutes blank measurement and 10 to 15 minutes transmission measurement were performed using 68Ge/68Ga calibration source. Next, [^11C] PBR28 was intravenously bolus administrated over a period of about 30 seconds. Emission measurement (total 90 minutes, 26 frames) was started together with the administration while an arterial blood sampling for measuring the plasma concentration.
Brain occupancy, relative to the binding potential (BP) before the administration, was calculated by calculating the BP of each interest area from the brain radioactivity concentration time change of [^11C] PBR28, nonspecific binding amount and arterial blood plasma radioactivity which was corrected in a non-metabolic rate (n=3 to 4 in each group). Further, the average TSPO occupancy of all interest areas was determined from the Lassen plot that obtained by the horizontal axis of the distribution volume before administration and the vertical axis of the value obtained by subtracting the distribution volume after administration from the distribution volume before the administration for each interest area. […] As parameters in this model, Emax (a maximal effect) and EC50 (ng/mL) (a blood concentration which can be achieved 50% Emax) were used. An analysis software NONMEM7.1.2 (ICON Development Solutions) was used in this analysis. Parameters and formula of Emax model were shown in the following.
TSPO Occupancy (%)=(θ1×X)/(θ2+X)
X=Plasma concentration (ng/mL)

[2] = tested on: CCK-4 induced stress model; assay: Antianxiety effect (2): freezing time in CCK-4 induced stress model; conditions: rat, 1 and 3 mg/kg oral, 2 h before CCK-4 3 mg/kg s.c., Steel test
Procedure: Male LEW/CrlCrlj rats (Charles River Laboratories Japan, Inc., at the time of evaluation: 6 weeks old) were used. In accordance with Rupprecht et al. method (Science, Vol. 325, p. 490-493, 2009), cholecystokinin tetrapeptide (CCK-4) (3 mg/kg) was administered subcutaneously to the rat to induce freezing behavior which was used as an indicator of anxiety. The vehicle (0.5 w/v % methylcellulose 400 cP solution) or the compound of the present invention (1 or 3 mg/kg) was orally administered to the rat. Two hours after the administration, CCK-4 (3 mg/kg) was subcutaneously administered. Two minutes after the administration of CCK-4, the front paws of the rat were placed on a wooden block of height 7 cm. […] Instead of CCK-4, the normal group was administered 1% dimethyl formamide which is the vehicle of CCK-4. Cut-off time was set to 120 seconds. This trial was carried out a total five times at about 2 minute intervals, and the sum of the freezing time was calculated.

## COc1cc(Cl)ccc1[C@H]1c2[nH]c3cccc(F)c3c2C2(CC2)CN1C(C)=O [the compound of the present invention, (1S)-2-acetyl-1-(4-chloro-2-methoxyphenyl)-5-fluoro-1,2,3,9-tetrahydrospiro[β-carboline-4,1′-cyclopropane]]
[1]
  freezing time vs. vehicle control group: shortened this extended freezing time significantly
Brain TSPO; Emax model
  plasma concentration that makes brain TSPO occupancy reach about 50%: about 15 ng/mL
  plasma concentration that makes brain TSPO occupancy reach about 85%: about 150 ng/mL
Brain TSPO; [11C] PBR28, 6 to 200 mg single oral dose, NONMEM, in % (unit assumed)
  θ1 (=Emax), maximal effect of Emax model of TSPO occupancy: 92.8±3.59
Brain TSPO; [11C] PBR28, 6 to 200 mg single oral dose, NONMEM, read-out: θ2 (=EC50), blood concentration which can be achieved 50% Emax (converted)
  EC50: 34.3 nM
[2]
  freezing time vs. vehicle control group: shortened this extended freezing time significantly

From patent US20170119742A1, “MEDICAMENT FOR PREVENTING AND/OR TREATING STRESS DISEASES” (ONO PHARMACEUTICAL CO., LTD., priority 2014, published 2017)
